Laboratory results reported in patent US6518012B1, “Method for regulating the expression of MHC antigens and CD40 by inhibitors of histone deacetylation” (Health Research, Inc., priority 1999, dated 2003).

Key:
Type in all cases: cell-based, mouse
CD40 = test: Cell surface CD40 by flow cytometry on Colon 26 and J558
Protocol: To determine the effect of TSA on cell surface protein expression, the J558 cell line was subjected to flow cytometric analyses as follows. Flow cytometric analyses were conducted by standard methods using cells fixed with 1.0% paraformaldehyde and analyzed on the FACScan (Becton Dickinson). Cell cycle analyses were carried out by flow cytometry with PI staining of genomic DNA. Cells were fixed and permeablized in methanol, treated with RNaseA and analyzed for DNA content by determination of FL3-area on the FACScan. The FL3-area data were analyzed with the ModFit software for determination of the percent cells in each phase of the cell cycle. In some cases, fluorescein isothiocyanate (FITC)-conjugated antibody staining was conducted prior to PI treatment and surface staining was analyzed as a function of cell cycle phase. Apoptosis was analyzed by staining with annexin-V directly conjugated with either FITC or RPE and by sub-G0 analysis of DNA staining. […] Isotype controls were analyzed and, in each case, fell on or below the levels shown for control cells. […] Since all cells were positive for MHC class I expression, the number under the histogram represents -fold change of expression calculated from the mean channel-shift after treatment relative to untreated cells. […]

[1] = tested on: MHC class II protein on the cell surface; test: Cell surface MHC class II protein by flow cytometry on Colon 26 and J558; settings: for expression of MHC class II protein on the cell surface: Colon 26 (50 nM TSA 48 hours) and J558 (25 nM TSA 24 hours), flow cytometry, IFNγ 100 U/ml same time
Protocol: To determine the effect of TSA on cell surface protein expression, the J558 cell line was subjected to flow cytometric analyses as follows. Flow cytometric analyses were conducted by standard methods using cells fixed with 1.0% paraformaldehyde and analyzed on the FACScan (Becton Dickinson). Cell cycle analyses were carried out by flow cytometry with PI staining of genomic DNA. Cells were fixed and permeablized in methanol, treated with RNaseA and analyzed for DNA content by determination of FL3-area on the FACScan. The FL3-area data were analyzed with the ModFit software for determination of the percent cells in each phase of the cell cycle. In some cases, fluorescein isothiocyanate (FITC)-conjugated antibody staining was conducted prior to PI treatment and surface staining was analyzed as a function of cell cycle phase. Apoptosis was analyzed by staining with annexin-V directly conjugated with either FITC or RPE and by sub-G0 analysis of DNA staining. Expression levels without treatment are shown as shaded peaks, IFNγ treated cell expression is plotted by a thin line while the level of expression on TSA treated cells is represented by a heavy line. Isotype controls were analyzed and, in each case, fell on or below the levels shown for control cells. MC and Colon 26 treatments are shown for 50 nM TSA for 48 hours, while J558 treatment is for 25 nM TSA for 24 hours. All IFNγ treatments were 100 U/ml for the same length of time as the corresponding TSA treatment. The percent of cells staining positive for MHC class II or CD40 expression is indicated below each histogram. Since all cells were positive for MHC class I expression, the number under the histogram represents -fold change of expression calculated from the mean channel-shift after treatment relative to untreated cells. Data are representative of at least three independent experiments. Of the 13 markers analyzed on J558 cells, only class I, II and CD40 were enhanced, while levels of several non-expressed antigens were not elicited (including CD25, B7 integrin, CD40L, H2K^k and IA^k) while other markers, which were expressed, were not altered (including CD44, CD54, CD80, CD86 and CD119) by TSA treatment. […] The highest expression (21-fold induction) was achieved on J558 cells after 24 hr by 25 nM TSA. […] The separation of control and IFNγ curves in the CD40, J558 experiment depicted in FIG. 8 represents a mean channel fluorescence difference of only 1.3 and was not seen on independent replicates of the experiment.
TSA has been described as a cell cycle inhibitor that induces both G1 and especially G2/M blocks (Bestor, 1998, Nature, 393:311-312; Yoshida et al., 1988, Exp. Cell Res. 177:122-131). MHC class II, but not class I, has been reported (Inokoshi et al., 1999, Biochem. Biophys. Res. Commun., 256:372-376; Monroe et al., 1983, J. Immunol., 130:626-631) to be regulated differentially during the cell cycle. Therefore the cell cycle of the cell lines used in the present invention was analyzed by DNA staining and flow cytometry with each of the treatment conditions under study. […] Two additional methods were used to analyze cell cycle effects on MHC expression. Since it has been reported that TSA arrests cell cycle mainly in G2/M, and class II has been reported to accumulate in G2/M (Monroe et al., 1983, supra), experiments were designed to essentially arrest 100% of J558 cells in G2/M with nocodazole. […] From the above experiments, it can be concluded that DAIs have specific effects on MHC class I and II, and CD40 gene expression, which is likely not a result of its action on the cell cycle.

CD40 mRNA = CD40 mRNA by real-time PCR in Colon 26 and J558
Protocol: In order to obtain more quantitative information on fold changes in DR and CIITA after treatment with the deacetylase inhibitors, a real time fluorescence technique capable of quantitating low copy numbers of transcripts was carried out as follows. Oligonucleotide primers and TaqMan 5′-6-FAM and 3′-TAMRA-labeled probes were synthesized in the RPCI Biopolymer Facility. Primer and probe sequences are listed under Sequence Listing and also in FIG. 9. Sequences were designed using standard software (PrimerExpress software, PE Biosystems) except for human GAPDH.
Realtime PCR reactions contained TaqMan Universal PCR Master Mix (PE Biosystems), primers at 300 nM, and probes at optimal concentrations (150-225 nM depending on gene). Reactions were carried out on an ABI PRISM 7700 Sequence Detection System (PE Biosystems). Cycling conditions were 50° C. for 2 min, 95° C. for 10 min, then 60 cycles of 95° C. for 15 sec, 60° C. for 1 min. PCR samples were run in triplicate. The detection system and quantitative PCR was carried out as described by Williamson et al. (1995, Genet Res. 65:83-93). The threshold cycle number CT corresponded to the cycle number, at which the fluorescent emission reaches 10 standard deviations above the mean fluorescent emission, measured during the early ‘baseline’ cycles of the PCR. The CT values for triplicates were averaged and normalized to GAPDH levels. […] In such cases, in order to calculate a minimum fold change for other samples in the same group, the CT value was arbitrarily set at 40. […] Assuming reverse transcription efficiencies were approximately the same for each sample, relative amounts of mRNA using the comparative CT method. Fold changes in mRNA levels were calculated as 2^x where x=the difference between normalized CT values of the control and experimental samples.
This embodiment illustrates the effect of DAIs on costimulatory molecules. Because of the importance of costimulatory molecules in the cellular activation mechanism involving MHC complexes, the effect of DAIs on the expression of B7-1, B7-2 and CD40 genes was investigated by real-time PCR as well as RT-PCR. While no consistent changes in B7-1 and B7-2 were detected (data not shown), CD40 expression was enhanced by TSA in all three cell types (FIGS. 7A, B, C). MC cells constitutively expressed low levels of CD40 and IFNγ enhanced CD40 mRNA levels 5-fold while TSA elicited a 12-fold increase at 24 hours (FIG. 7A). […] GADPH mRNA remained essentially unchanged with both the primer sites used in RT-PCR and real-time PCR. The lack of induction of CD40 by IFNγ in J558 cells is consistent with the failure of IFNγ to activate other IFNγ inducible genes.

[2] = Colon 26, 60 cycles, 100 U/ml IFNγ for 24 hours, TSA (12 and 48 hours)
[3] = J558, TSA 25 nM for 24 hours, IFNγ

Row | Compound | expression of CD40 on cell surface (CD40; Colon 26 and J558, flow cytometry) | expression of MHC class II protein on the cell surface [1] | cells positive for class II expression ([1]; Colon 26, TSA concentration used in FIG. 8 (50 nM for 48 hours)) [%] | MHC class II positive cells ([1]; J558, G2/M arrest experiment with nocodazole, data not shown) [%] | cells positive for class II expression ([1]; J558, TSA concentration used in FIG. 8 (25 nM for 24 hours)) [%] | induction of cell surface MHC class II, mean channel fluorescence ([1]; J558 cells, 24 hr, 25 nM TSA, highest expression) [fold] | CD40 mRNA fold increase (CD40 mRNA; [2]) | CD40 mRNA fold increase (CD40 mRNA; [3]) | mean channel fluorescence difference between control and IFNγ curves, CD40 (CD40; J558, IFNγ 100 U/ml 24 hours, not seen on independent replicates)
1 | CC(/C=C/C(=O)NO)=C\[C@@H](C)C(=O)c1ccc(N(C)C)cc1 [TSA, Trichostatin A] | induced expression | significantly induced | 53 | 75 | 87 | 21 | 147 fold | 161 fold | –
2 | IFNγ: gamma-interferon, cytokine used as comparator at 100 U/ml | – | did not induce | – | – | – | – | undetectable | did not change | 1.3
